The target of experiment [1] is T1, thromboxane A2 receptor (TP) (Homo sapiens, UniProt P21731).
T1 construct: using human platelets as the source of the receptor; from tissue; host or cells: human platelets (whole platelets, 5x10^7 per well)
T1 sequence (P21731 1-343): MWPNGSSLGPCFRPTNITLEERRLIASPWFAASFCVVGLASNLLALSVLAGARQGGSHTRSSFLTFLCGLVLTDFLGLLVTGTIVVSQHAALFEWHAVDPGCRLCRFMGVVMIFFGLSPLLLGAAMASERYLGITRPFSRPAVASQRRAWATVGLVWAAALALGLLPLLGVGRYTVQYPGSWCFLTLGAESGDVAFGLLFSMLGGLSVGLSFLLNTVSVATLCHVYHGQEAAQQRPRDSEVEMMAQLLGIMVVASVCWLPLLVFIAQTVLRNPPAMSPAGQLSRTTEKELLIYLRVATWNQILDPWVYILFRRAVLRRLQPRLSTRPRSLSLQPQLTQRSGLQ
The experiment in a line: Human Thromboxane A2 Receptor Binding Assay. The conditions noted are these: human platelets; 10 nM [3H]SQ29548; 1 hour, room temperature. From the text: The thromboxane A2 receptor (TP) plays a key role in hemostasis as its abnormality leads to bleeding disorders. To avoid the potential liability of bleeding disorders, the binding activity of certain compounds of the present invention against TP was monitored by a receptor binding assay using human platelets as the source of the receptor and [^3H]SQ29548 (generically named (5Z)-[5,6-^3H]-7-[(1S,2R,3R,4R)-3-[[2-[(phenylamino)carbonyl]hydrazinyl]methyl]-7-oxabicyclo[2.2.1]hept-2-yl]-5-heptenoic acid, from PerkinElmer Inc.) as the competing radioactive ligand.
The TP binding reactions (0.2 mL) were performed in 96-well plates at room temperature in PBS containing 5×10^7 platelets, 10 mM MgCl2, 0.06% BSA, 10 nM [^3H]SQ29548, and the test compound at various concentrations. After 1 hour of binding reactions, the platelets were harvested on GF/B filter plates (as previously described from PerkinElmer Inc.) and washed 5 times with PBS using a Filtermate™ Harvester (as previously described from PerkinElmer Inc.). The radioactivities bound to the platelets were determined using a microplate scintillation counter (TopCount® NXT, from PerkinElmer Inc.) after adding 50 μL of Microscint™ 20 scintillation fluid (from PerkinElmer Inc.) to each well of the filter plates. The radioactivity from non-specific binding was determined by replacing the compound with 10 μM of ramatroban (BAY-u3405, from Cayman Chemical Company) in the reaction mixtures. The radioactivity bound to the platelets in the absence of compound (total binding) was determined by replacing the compound with 0.25% of DMSO in the reaction mixture. Specific binding data were obtained by subtracting the radioactivity of non-specific binding from each binding data.
(§1) The IC50 value is defined as the concentration of the tested compound that is required for 50% inhibition of total specific binding. In order to calculate the IC50 value, the percent inhibition data were determined for 7 concentrations for each compound. The percent inhibition for a compound at each concentration was calculated according to the following formula, [1−(specific binding in the presence of compound)/(total specific binding)]×100. The IC50 value was then obtained by fitting the percent inhibition data to a sigmoidal dose-response (4 parameter logistic) model in the XLfit® software Excel add-in program [from ID Business Solutions Ltd., model 205, where F(x)=(A+(B−A)/(1+((C/x)̂D)))].

A further experiment addresses T2, human CRTH2 (Homo sapiens, UniProt Q9Y5Y4).
T2 sequence (Q9Y5Y4 1-395): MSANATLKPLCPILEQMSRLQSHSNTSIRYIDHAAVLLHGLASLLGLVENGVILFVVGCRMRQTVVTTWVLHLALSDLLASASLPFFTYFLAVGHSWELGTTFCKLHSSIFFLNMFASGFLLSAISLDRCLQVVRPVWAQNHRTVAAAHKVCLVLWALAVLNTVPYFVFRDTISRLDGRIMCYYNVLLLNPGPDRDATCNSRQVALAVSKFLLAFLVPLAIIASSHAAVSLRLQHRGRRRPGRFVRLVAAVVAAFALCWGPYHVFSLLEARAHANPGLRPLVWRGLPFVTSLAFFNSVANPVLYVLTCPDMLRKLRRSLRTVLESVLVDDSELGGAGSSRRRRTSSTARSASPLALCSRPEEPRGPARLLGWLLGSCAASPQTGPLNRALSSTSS
The experiment in a line: Human CRTH2 Receptor Binding Assay (whole cell, [3H]ramatroban competition). More on the design: expressed in transfected cells; host or cells: CHO-K1 (co-transfected with G-alpha16). The note with it: CHO-K1 cells expressing human CRTH2 and G-alpha16; 20 nM [3H]ramatroban; 1 hour, room temperature.
From the text: A whole cell receptor binding assay using [^3H]ramatroban as the competing radioactive ligand was employed to evaluate the compound binding activity to human CRTH2. The radioactive ligand [^3H]ramatroban was synthesized according to Sugimoto et. al. (Eur. J. Pharmacol. 524, 30-37, 2005) to a specific activity of 42 Ci/mmol.
A cell line stably expressing human CRTH2 was established by transfecting CHO-K1 cells with two mammalian expression vectors that harbored human CRTH2 and G-alpha16 cDNAs, respectively, using FuGene® 6 transfection reagent (from Roche). Stable clones expressing CRTH2 were selected by staining each clone with BM16 (BD Pharmingen™ from BD Biosciences, a division of Becton, Dickinson and Company), which is a rat monoclonal antibody to human CRTH2. The cells were maintained as monolayer cultures in Ham's F-12 medium containing 10% fetal bovine serum, 100 units/mL penicillin, 100 μg/mL streptomycin, 2 mM glutamine, 0.5 mg/mL G418 (geneticin) for CRTH2, and 0.2 mg/mL hygromycin-B (for G-alpha 16). For whole cell receptor binding assay, the monolayer cells were rinsed once with PBS (phosphate buffered saline), dissociated using ethylenediaminetetraacetate (Versene™ EDTA from Lonza Inc.), and suspended in PBS containing 10 mM MgCl2 and 0.06% BSA (bovine serum albumin) at 1.5×10^6 cells/mL.
The binding reactions (0.2 mL) were performed in 96-well plates at room temperature in PBS containing 1.5×10^5 cells, 10 mM MgCl2, 0.06% BSA, 20 nM [^3H]ramatroban, and test compound at various concentrations. After 1 hour of binding reactions, the cells were harvested on GF™/B filter microplates (microtiter plates with embedded glass fiber from PerkinElmer, Inc.) and washed 5 times with PBS using a Filtermate™ Harvester (a cell harvester that harvests and washes cells from microplates from PerkinElmer, Inc.). The radioactivities bound to the cells were determined using a microplate scintillation counter (TopCount® NXT, from PerkinElmer, Inc.) after adding 50 μL of Microscint™ 20 scintillation fluid (from PerkinElmer, Inc.) to each well of the filter plates. The radioactivity from non-specific binding was determined by replacing compound with 10 μM of 15(R)-15-methyl PGD2 (from Cayman Chemical Company) in the reaction mixtures. The radioactivity bound to the cells in the absence of compound (total binding) was determined by replacing compound with 0.25% of DMSO (dimethyl sulfoxide) in the reaction mixture. Specific binding data were obtained by subtracting the radioactivity of non-specific binding from each binding data.
as §1

On to `CN([C@@H]1CCCc2c(OCC(=O)O)cccc21)S(=O)(=O)c1cc(F)cc(C(F)(F)F)c1` [Example 1-1, {(R)-5-[(3-fluoro-5-trifluoromethyl-benzenesulfonyl)-methyl-amino]-5,6,7,8-tetrahydro-naphthalen-1-yloxy}-acetic acid], for which the results for the IC50 (in experiment [1]; on human CRTH2) were greater than 10 µM and 0.381 µM, respectively.
Consider `CCN(CC)c1cc(C(F)(F)F)cc(S(=O)(=O)N(C)[C@@H]2CCCc3c(OCC(=O)O)cccc32)c1` [Example 4-2, {(R)-5-[(3-diethylamino-5-trifluoromethyl-benzenesulfonyl)-methyl-amino]-5,6,7,8-tetrahydro-naphthalen-1-yloxy}-acetic acid], for which the IC50 (commonly the concentration at which inhibition is half-maximal) is greater than 10 µM in experiment [1] and 0.773 µM on human CRTH2.
The like results for `CCOc1cc(C(F)(F)F)cc(S(=O)(=O)N(C)[C@@H]2CCCc3c(OCC(=O)O)cccc32)c1` [Example 9-2, {(R)-5-[(3-ethoxy-5-trifluoromethyl-benzenesulfonyl)-methyl-amino]-5,6,7,8-tetrahydro-naphthalen-1-yloxy}-acetic acid] were, in that order, greater than 10 µM and 0.399 µM.
`CN([C@@H]1CCCc2c(OCC(=O)O)cccc21)S(=O)(=O)c1cc(OC2CCCC2)cc(C(F)(F)F)c1` [Example 9-3, {(R)-5-[(3-cyclopentyloxy-5-trifluoromethyl-benzenesulfonyl)-methyl-amino]-5,6,7,8-tetrahydro-naphthalen-1-yloxy}-acetic acid]: the IC50 in experiment [1] was found to be 8.52 µM; on human CRTH2, 0.423 µM.
Turning to `O=C(O)COc1cccc2c1CCC[C@H]2NS(=O)(=O)c1cc(Cl)cc(Cl)c1` [Example 10-1, [(R)-5-(3,5-dichloro-benzenesulfonylamino)-5,6,7,8-tetrahydro-naphthalen-1-yloxy]-acetic acid], the values for the concentration for half-maximal inhibition (IC50) (in experiment [1]; at human CRTH2) were 0.126 µM and 0.34 µM, respectively.
`O=C(O)COc1cccc2c1CCC[C@H]2NS(=O)(=O)c1cc(F)cc(F)c1` [Example 10-5, [(R)-5-(3,5-difluoro-benzenesulfonylamino)-5,6,7,8-tetrahydro-naphthalen-1-yloxy]-acetic acid]: the IC50 was found to be 2.42 µM in experiment [1] and 0.013 µM on human CRTH2.
For `O=C(O)COc1cccc2c1CCC[C@H]2NS(=O)(=O)c1cc(F)cc(C(F)(F)F)c1` [Example 10-12, [(R)-5-(3-fluoro-5-trifluoromethyl-benzenesulfonylamino)-5,6,7,8-tetrahydro-naphthalen-1-yloxy]-acetic acid], the IC50 in experiment [1] stood at 0.342 µM; on human CRTH2, 0.02 µM.

For the origin of these results see US20100041760A1, “MONOARYL AMINOTETRALINES” (priority 2008, published 2010).
